# According to the supplement of paper PMC10307832:
# Assays:
# Assay in all cases: relative viability (nuclei count vs DMSO), 5 days (fraction); higher = more cells survive
# Dabrafenib + Palbociclib = compound: CC(C)(C)c1nc(-c2cccc(NS(=O)(=O)c3c(F)cccc3F)c2F)c(-c2ccnc(N)n2)s1 [Dabrafenib] + CC(=O)c1c(C)c2cnc(Nc3ccc(N4CCNCC4)cn3)nc2n(C2CCCC2)c1=O [Palbociclib] (partner 0.5 µM)
# Summary of the method: (§1)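 Relative viability divides the nuclei count in treated wells by that in vehicle wells. Lung cancer cell lines were seeded in 1536-well plates, dosed by pin tool the next day, and fixed and stained after 5 days in one step with final 0.05% Triton X-100, 1% formaldehyde and 1 ug/ml Hoechst. Dosing was a single drug or a fixed anchor-drug dose plus five library-drug doses (not always all listed) in √10 steps, and values are medians of duplicate plates imaged at 4×.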
# Dabrafenib + Alpelisib = compound: CC(C)(C)c1nc(-c2cccc(NS(=O)(=O)c3c(F)cccc3F)c2F)c(-c2ccnc(N)n2)s1 [Dabrafenib] + Cc1nc(NC(=O)N2CCC[C@H]2C(N)=O)sc1-c1ccnc(C(C)(C)C(F)(F)F)c1 [Alpelisib] (partner 2 µM)
# Summary of the method: as §1
# VX-702 + Pictilisib = compound: NC(=O)c1ccc(N(C(N)=O)c2c(F)cccc2F)nc1-c1ccc(F)cc1F [VX-702] + CS(=O)(=O)N1CCN(Cc2cc3nc(-c4cccc5[nH]ncc45)nc(N4CCOCC4)c3s2)CC1 [Pictilisib] (partner 1 µM)
# Summary of the method: as §1
# VX-702 + Pemetrexed = compound: NC(=O)c1ccc(N(C(N)=O)c2c(F)cccc2F)nc1-c1ccc(F)cc1F [VX-702] + Nc1nc2[nH]cc(CCc3ccc(C(=O)N[C@@H](CCC(=O)O)C(=O)O)cc3)c2c(=O)[nH]1 [Pemetrexed] (partner 0.2 µM)
# Summary of the method: as §1
Cell Line,relative viability (Dabrafenib + Palbociclib; first compound 0.003 µM),relative viability (Dabrafenib + Palbociclib; first compound 0.009487 µM),relative viability (Dabrafenib + Palbociclib; first compound 0.03 µM),relative viability (Dabrafenib + Palbociclib; first compound 0.09487 µM),relative viability (Dabrafenib + Palbociclib; first compound 0.3 µM),relative viability (Dabrafenib + Alpelisib; first compound 0.003 µM),relative viability (Dabrafenib + Alpelisib; first compound 0.009487 µM),relative viability (Dabrafenib + Alpelisib; first compound 0.03 µM),relative viability (Dabrafenib + Alpelisib; first compound 0.09487 µM),relative viability (Dabrafenib + Alpelisib; first compound 0.3 µM),relative viability (VX-702 + Pictilisib; first compound 0.02 µM),relative viability (VX-702 + Pictilisib; first compound 0.2 µM),relative viability (VX-702 + Pictilisib; first compound 0.6325 µM),relative viability (VX-702 + Pictilisib; first compound 2 µM),relative viability (VX-702 + Pemetrexed; first compound 0.02 µM),relative viability (VX-702 + Pemetrexed; first compound 0.2 µM),relative viability (VX-702 + Pemetrexed; first compound 0.6325 µM),relative viability (VX-702 + Pemetrexed; first compound 2 µM)
LU99A,0.477,0.387,0.388,0.39,0.393,0.563,0.439,0.48,0.502,0.515,0.316,0.297,0.292,0.318,0.173,0.164,0.184,0.16
LXF-289,0.59,0.594,0.673,0.62,0.616,1.02,1.03,1.02,0.991,1.06,0.85,0.785,0.818,0.784,0.935,0.894,0.9,0.947
NCI-H23,,0.575,0.465,0.455,0.634,,0.787,0.554,0.652,0.791,0.506,0.424,0.464,0.652,0.655,0.654,0.714,0.774
NCI-H322M,,0.545,,0.526,0.477,,0.829,,0.629,0.85,0.543,0.528,0.483,0.521,0.61,0.611,0.633,0.578
NCI-H358,0.111,0.149,0.12,0.153,0.122,,1.01,0.735,1.01,1.15,0.352,0.343,0.301,0.323,0.176,0.172,0.168,0.173
NCI-H441,,0.268,0.239,0.2,0.248,,0.915,0.817,0.677,0.692,0.503,0.492,0.352,0.494,0.24,0.233,0.273,0.238
NCI-H460,0.229,0.1,0.148,0.226,0.111,0.508,0.599,0.394,0.567,0.592,0.361,0.153,0.295,0.257,0.0627,0.0509,0.055,0.057
NCI-H520,0.216,0.228,0.196,0.241,0.217,0.934,0.881,0.708,0.881,0.914,0.282,0.216,0.25,0.306,0.713,0.486,0.636,0.765
NCI-H647,0.328,0.377,0.305,0.395,0.349,,1.09,1.12,0.945,1.03,0.479,0.432,0.461,0.644,0.174,0.172,0.133,0.144
NCI-H650,,0.375,0.308,0.305,0.238,,1.09,0.953,0.906,0.706,0.745,,0.821,1.05,1.22,0.932,0.92,0.958
NCI-H661,0.383,0.406,0.426,0.458,0.433,0.259,0.707,0.382,0.432,0.687,0.395,0.458,0.426,0.421,0.766,0.877,0.932,0.971
NCI-H838,0.207,0.238,0.209,0.214,0.236,1.01,1.07,0.861,0.93,1.15,0.467,0.408,0.517,0.47,0.234,0.24,0.254,0.236
NCI-H1355,,0.458,0.373,0.409,0.47,,0.935,0.608,,0.809,0.514,0.439,0.338,0.46,1.05,1.01,1.02,1.09
NCI-H1395,,0.655,0.623,0.642,0.623,,0.914,0.894,0.944,0.878,0.572,0.595,0.607,0.662,0.864,0.851,0.831,1.01
NCI-H1437,0.307,0.35,0.363,0.384,0.413,1.03,1,1.04,1.02,1.06,0.499,0.428,0.446,0.53,0.345,0.261,0.318,0.324
NCI-H1651,0.499,0.494,0.51,0.524,0.505,0.994,1.01,0.859,0.935,0.904,0.649,0.645,0.668,0.57,0.523,0.57,0.559,0.566

Cell Line,relative viability (Dabrafenib + Palbociclib; first compound 0.003 µM),relative viability (Dabrafenib + Palbociclib; first compound 0.009487 µM),relative viability (Dabrafenib + Palbociclib; first compound 0.03 µM),relative viability (Dabrafenib + Palbociclib; first compound 0.09487 µM),relative viability (Dabrafenib + Palbociclib; first compound 0.3 µM),relative viability (Dabrafenib + Alpelisib; first compound 0.003 µM),relative viability (Dabrafenib + Alpelisib; first compound 0.009487 µM),relative viability (Dabrafenib + Alpelisib; first compound 0.03 µM),relative viability (Dabrafenib + Alpelisib; first compound 0.09487 µM),relative viability (Dabrafenib + Alpelisib; first compound 0.3 µM),relative viability (VX-702 + Pictilisib; first compound 0.02 µM),relative viability (VX-702 + Pictilisib; first compound 0.2 µM),relative viability (VX-702 + Pictilisib; first compound 0.6325 µM),relative viability (VX-702 + Pictilisib; first compound 2 µM),relative viability (VX-702 + Pemetrexed; first compound 0.02 µM),relative viability (VX-702 + Pemetrexed; first compound 0.2 µM),relative viability (VX-702 + Pemetrexed; first compound 0.6325 µM),relative viability (VX-702 + Pemetrexed; first compound 2 µM)
NCI-H1666,0.643,0.671,0.675,0.565,0.686,0.988,,0.962,0.973,1.11,0.513,0.439,0.454,0.263,0.869,0.869,0.89,0.808
NCI-H1734,,0.352,0.287,0.344,0.347,,0.775,0.585,0.573,0.688,0.516,0.388,0.388,0.346,0.386,0.377,0.413,0.409
NCI-H1755,0.429,0.425,0.435,0.411,0.415,0.907,0.937,0.734,0.904,0.875,0.395,0.389,0.409,0.486,0.473,0.404,0.384,0.378
NCI-H1792,,0.718,0.66,0.63,0.66,,0.698,0.646,0.598,0.663,0.228,0.222,0.22,0.247,0.815,0.777,0.881,0.862
NCI-H1793,,0.411,,0.289,0.291,0.676,0.675,0.615,0.73,0.64,0.311,0.262,0.389,0.252,0.884,,0.806,1.06
NCI-H1915,0.52,0.579,0.447,0.417,0.508,1.03,1.05,0.979,0.897,0.984,1.14,0.848,0.949,1.1,0.519,0.476,0.446,0.455
NCI-H1944,0.325,0.342,0.326,0.319,0.318,0.785,0.877,0.745,0.84,0.838,0.362,0.333,0.326,0.284,0.58,0.603,0.635,0.382
NCI-H1975,0.437,0.581,0.553,0.456,0.384,0.68,0.687,0.635,0.624,0.535,0.27,0.283,0.384,0.316,0.312,0.296,0.301,0.287
NCI-H1993,0.672,0.786,0.746,0.664,0.701,0.689,0.618,0.534,0.686,0.778,0.871,0.808,0.757,0.834,0.646,0.529,0.523,0.563
NCI-H2009,0.153,0.22,0.179,0.149,0.128,1.1,1.08,1.05,0.886,0.934,0.866,0.739,0.789,1.05,1.12,1.08,1.03,1.15
NCI-H2023,0.419,0.417,0.48,0.371,0.421,0.668,0.614,0.635,0.614,0.801,0.238,0.228,0.192,0.221,0.231,0.264,0.199,0.198
NCI-H2085,0.455,0.463,0.501,0.471,0.456,0.949,1.02,0.93,0.997,0.954,0.429,0.47,0.466,0.4,0.82,0.957,0.949,0.852
NCI-H2087,,0.218,0.246,0.235,0.208,1.19,1.12,1.11,0.823,0.831,0.861,0.729,0.881,0.783,0.703,0.657,0.681,0.656
NCI-H2126,0.294,0.333,0.373,0.359,0.382,0.706,0.78,0.74,0.796,0.777,0.502,0.487,0.459,0.448,0.717,0.659,0.676,0.624
NCI-H2170,0.429,0.377,0.383,0.377,0.397,0.91,0.848,0.713,0.733,0.95,0.339,0.317,0.324,0.283,0.275,0.264,0.309,0.278
